Measurements taken from patent publication US8399476B2, “Imidazo[1,2-a]pyridines and their use as pharmaceuticals” (Sanofi, priority 2007, dated 2013).
pEC50: −log10 of the molar value. Counter-ions that a name gives are not always drawn.

The molecules below were run on eNOS promoter (assay: Activation of eNOS transcription (eNOS promoter firefly luciferase reporter gene assay)). Settings: human endothelial cell line stably transfected with eNOS promoter-luciferase construct, 18 h incubation; read-out: EC50 values of transcription induction ratios (TIR).
Type: cell-based
Protocol: Activation of eNOS transcription was measured as described in detail by Li et al., “Activation of protein kinase C alpha and/or epsilon enhances transcription of the human endothelial nitric oxide synthase gene”, Mol. Pharmacol. 53 (1998) 630. Briefly, a 3.5 kB long fragment 5′ of the starting codon of the eNOS gene was cloned, sequenced and cloned in firefly luciferase expression plasmids to monitor activation of the eNOS promoter by reporter gene activity. A human endothelial cell line stable transfected and expressing this promoter-reporter construct was used for compound testing. Cells were incubated for 18 h with the compounds.
All compounds were dissolved in sterile dimethyl sulfoxide (DMSO). A final concentration of 0.5% DMSO in complete medium was allowed. Induction of reporter gene expression in these cells was measured using a standard luciferase assay system (Promega, Cat. No. E150) according to the manufacturer's instructions. Luciferase induction in cells incubated with compounds were compared to those incubated with solvent alone. The ratio of both activities (transcription induction ratio, TIR) was plotted as a function of compound concentration. Typically, TIR values started at low concentrations at a ratio of 1, indicating no compound effect, and extended up to a maximum TIR value TIR(max) which indicates the increase of the eNOS transcription. EC50 values of transcription induction ratios as a function of compound concentration were determined graphically.

pEC50, > 6.30:
COC(=O)c1ccc2nc(-c3ccc(F)cc3)cn2c1 [Example 1, 2-(4-Fluoro-phenyl)-imidazo[1,2-a]pyridine-6-carboxylic acid methyl ester]
COC(=O)c1ccc2nc(-c3ccc(Br)cc3)c(C)n2c1 [Example 2, 2-(4-Bromo-phenyl)-3-methyl-imidazo[1,2-a]pyridine-6-carboxylic acid methyl ester]
COC(=O)c1ccc2nc(-c3ccccc3)c(C)n2c1 [Example 3, 3-Methyl-2-phenyl-imidazo[1,2-a]pyridine-6-carboxylic acid methyl ester]
COC(=O)c1ccc2nc(-c3ccccc3F)cn2c1 [Example 5, 2-(2-Fluoro-phenyl)-imidazo[1,2-a]pyridine-6-carboxylic acid methyl ester]
COC(=O)c1ccc2nc(-c3ccc(C)cc3)cn2c1 [Example 7, 2-p-Tolyl-imidazo[1,2-a]pyridine-6-carboxylic acid methyl ester]
COC(=O)c1ccc2nc(-c3cccc([N+](=O)[O-])c3)cn2c1 [Example 8, 2-(3-Nitro-phenyl)-imidazo[1,2-a]pyridine-6-carboxylic acid methyl ester]
COC(=O)c1ccc2nc(-c3ccc(OC)cc3)cn2c1 [Example 10, 2-(4-Methoxy-phenyl)-imidazo[1,2-a]pyridine-6-carboxylic acid methyl ester]
COC(=O)c1ccc2nc(-c3ccc(Br)cc3)cn2c1 [Example 12, 2-(4-Bromo-phenyl)-imidazo[1,2-a]pyridine-6-carboxylic acid methyl ester]
COC(=O)c1ccc2nc(-c3ccccc3)cn2c1 [Example 13, 2-Phenyl-imidazo[1,2-a]pyridine-6-carboxylic acid methyl ester]
COC(=O)c1ccc2nc(-c3cccc(F)c3)cn2c1 [Example 14, 2-(3-Fluoro-phenyl)-imidazo[1,2-a]pyridine-6-carboxylic acid methyl ester]
COC(=O)c1ccc2nc(-c3ccc(C(F)(F)F)cc3)cn2c1 [Example 15, 2-(4-Trifluoromethyl-phenyl)-imidazo[1,2-a]pyridine-6-carboxylic acid methyl ester]
COC(=O)c1ccc2nc(-c3ccc(OC(F)(F)F)cc3)cn2c1 [Example 16, 2-(4-Trifluoromethoxy-phenyl)-imidazo[1,2-a]pyridine-6-carboxylic acid methyl ester]
CCN(CC)c1ccc(-c2cn3cc(C(=O)OC)ccc3n2)cc1 [Example 17, 2-(4-Diethylamino-phenyl)-imidazo[1,2-a]pyridine-6-carboxylic acid methyl ester]
COC(=O)c1ccc2nc(-c3ccc(F)c(F)c3)cn2c1 [Example 19, 2-(3,4-Difluoro-phenyl)-imidazo[1,2-a]pyridine-6-carboxylic acid methyl ester]
COC(=O)c1ccc2nc(-c3ccccc3Cl)cn2c1 [Example 20, 2-(2-Chloro-phenyl)-imidazo[1,2-a]pyridine-6-carboxylic acid methyl ester]
COC(=O)c1ccc2nc(-c3ccc(Br)c(S(N)(=O)=O)c3)cn2c1 [Example 21, 2-(4-Bromo-3-sulfamoyl-phenyl)-imidazo[1,2-a]pyridine-6-carboxylic acid methyl ester]
COC(=O)c1ccc2nc(-c3cccc(C#N)c3)cn2c1 [Example 23, 2-(3-Cyano-phenyl)-imidazo[1,2-a]pyridine-6-carboxylic acid methyl ester]
COC(=O)c1ccc2nc(-c3cccc(Br)c3)cn2c1 [Example 24, 2-(3-Bromo-phenyl)-imidazo[1,2-a]pyridine-6-carboxylic acid methyl ester]
COC(=O)c1ccc2nc(-c3ccc(C)cc3C)cn2c1 [Example 25, 2-(2,4-Dimethyl-phenyl)-imidazo[1,2-a]pyridine-6-carboxylic acid methyl ester]
COC(=O)c1ccc2nc(-c3ccc(Cl)cc3Cl)cn2c1 [Example 28, 2-(2,4-Dichloro-phenyl)-imidazo[1,2-a]pyridine-6-carboxylic acid methyl ester]
COC(=O)c1ccc2nc(-c3cccc(Cl)c3)cn2c1 [Example 31, 2-(3-Chloro-phenyl)-imidazo[1,2-a]pyridine-6-carboxylic acid methyl ester]
COC(=O)c1ccc2nc(-c3cc(F)cc(F)c3)cn2c1 [Example 32, 2-(3,5-Difluoro-phenyl)-imidazo[1,2-a]pyridine-6-carboxylic acid methyl ester]
COC(=O)c1ccc2nc(-c3cccc(C(F)(F)F)c3)cn2c1 [Example 33, 2-(3-Trifluoromethyl-phenyl)-imidazo[1,2-a]pyridine-6-carboxylic acid methyl ester]
COC(=O)c1ccc2nc(-c3ccc4c(c3)OCCO4)cn2c1 [Example 34, 2-(2,3-Dihydro-benzo[1,4]dioxin-6-yl)-imidazo[1,2-a]pyridine-6-carboxylic acid methyl ester]
COC(=O)c1ccc2nc(-c3ccc(-c4ccccc4)cc3)cn2c1 [Example 37, 2-Biphenyl-4-yl-imidazo[1,2-a]pyridine-6-carboxylic acid methyl ester]
COC(=O)c1ccc2nc(-c3ccc([N+](=O)[O-])cc3)cn2c1 [Example 38, 2-(4-Nitro-phenyl)-imidazo[1,2-a]pyridine-6-carboxylic acid methyl ester]
COC(=O)c1ccc2nc3c(n2c1)Cc1ccccc1-3 [Example 42, 11H-Indeno[1′,2′:4,5]imidazo[1,2-a]pyridine-8-carboxylic acid methyl ester]
COC(=O)c1ccc2nc(-c3ccc(N)cc3)cn2c1 [Example 44, 2-(4-Amino-phenyl)-imidazo[1,2-a]pyridine-6-carboxylic acid methyl ester]
Cc1ccc(-c2cn3cc(C(=O)O)ccc3n2)cc1 [Example 46, 2-p-Tolyl-imidazo[1,2-a]pyridine-6-carboxylic acid]
N#Cc1ccc2nc(-c3ccc(F)cc3)cn2c1 [Example 52, 2-(4-Fluoro-phenyl)-imidazo[1,2-a]pyridine-6-carbonitrile]
CCN(CC)c1ccc(-c2cn3cc(C#N)ccc3n2)cc1 [Example 53, 2-(4-Diethylamino-phenyl)-imidazo[1,2-a]pyridine-6-carbonitrile trifluoroacetic acid salt]
Cc1ccc(-c2cn3cc(C#N)ccc3n2)cc1 [Example 54, 2-p-Tolyl-imidazo[1,2-a]pyridine-6-carbonitrile]
N=C(NO)c1ccc2nc(-c3ccc(F)cc3)cn2c1 [Example 56, 2-(4-Fluoro-phenyl)-N-hydroxy-imidazo[1,2-a]pyridine-6-carboxamidine]
Cc1ccc(-c2cn3cc(/C(N)=N/O)ccc3n2)cc1 [Example 57, N-Hydroxy-2-p-tolyl-imidazo[1,2-a]pyridine-6-carboxamidine]
CCOC(=O)ONC(=N)c1ccc2nc(-c3ccc(F)cc3)cn2c1 [Example 60, 2-(4-Fluoro-phenyl)-N-ethoxycarbonyloxy-imidazo[1,2-a]pyridine-6-carboxamidine]
Fc1ccc(-c2cn3cc(Br)ccc3n2)cc1 [Example 61, 6-Bromo-2-(4-fluoro-phenyl)-imidazo[1,2-a]pyridine]
Nc1ccc2nc(-c3ccc(F)cc3)cn2c1 [Example 66, 2-(4-Fluoro-phenyl)-imidazo[1,2-a]pyridin-6-ylamine]
O=CNc1ccc2nc(-c3ccc(F)cc3)cn2c1 [Example 67, N-[2-(4-Fluoro-phenyl)-imidazo[1,2-a]pyridin-6-yl]-formamide]
